Measured values as given in publication PMC7343282, “Tissue Distribution of Several Series of Cationic Surfactants in Rainbow Trout (Oncorhynchus mykiss) Following Exposure via Water” (Environmental Science & Technology, 2020).

Test system: rainbow trout (Oncorhynchus mykiss)
Assay: Contribution of tissues to fish body burden
Format: in vivo
Settings: for Contribution of Blood to the fish's body burden / Contribution of Gills to the fish's body burden / Contribution of Liver to the fish's body burden / Contribution of Mucus to the fish's body burden / Contribution of Other tissue (all apart from blood, liver, gills and skin; muscle concentration assumed) to body burden / Contribution of Skin to the fish's body burden: fraction
From the text: To calculate the quantity of the test chemical in the different tissues, the amount of each tissue in the fish was estimated and multiplied by the concentration in that tissue. The test chemical quantities in the different tissues were then summed to give the body burden in each fish. The total weight of the fish and the weight of the liver and gills were available from the dissection (Table S16). For skin and mucus, the estimated outer surface area of the fish was used. We note that the distinction between mucus and skin is an operational one determined by the extraction method; mucus can be viewed as a more readily extracted fraction of the test chemical residues at the fish surface. The volume of blood was taken as 0.0495 mL g^–1 fish.[30] The remaining tissue (difference between the weight of the whole fish and the weight of liver, gills, skin, and blood) was assumed to have the concentration measured in the muscle. The contribution of the different tissues to the body burden is given for each fish in Table S17, and the average contribution across all fish is plotted in Figure 1. All of the tissues, with the exception of blood, contribute at least 10% of the body burden for at least half of the test chemicals. There is no consistent negative correlation between the fraction of chemical associated with blood, muscle, and liver (tissues where the residue originates entirely from systemic uptake) and alkyl chain length (a measure of hydrophobicity). Thus, although adsorption to fish surfaces appears to play a significant role, its contribution to body burden cannot be simply predicted from surfactant hydrophobicity. In the following, we examine uptake in individual tissues.

[1] = mean across fish, Figure 1, Q10, Q14 maximum estimates

Compound: CCCCCCCCCCCCCCCCN [P16, hexadecylamine]
- Contribution of Blood to the fish's body burden (Fish #1): 0.013
- Contribution of Gills to the fish's body burden (Fish #1): 0.62
- Contribution of Liver to the fish's body burden (Fish #1): 0.11
- Contribution of Mucus to the fish's body burden (Fish #1): 0.04
- Contribution of Other tissue (all apart from blood, liver, gills and skin; muscle concentration assumed) to body burden (Fish #1): 0.14
- Contribution of Skin to the fish's body burden (Fish #1): 0.08
- Contribution of Blood to the fish's body burden (Fish #2): 0.011
- Contribution of Gills to the fish's body burden (Fish #2): 0.57
- Contribution of Liver to the fish's body burden (Fish #2): 0.14
- Contribution of Mucus to the fish's body burden (Fish #2): 0.03
- Contribution of Other tissue (all apart from blood, liver, gills and skin; muscle concentration assumed) to body burden (Fish #2): 0.13
- Contribution of Skin to the fish's body burden (Fish #2): 0.12
- Contribution of Blood to the fish's body burden (Fish #3): 0.012
- Contribution of Liver to the fish's body burden (Fish #3): 0.12
- Contribution of Mucus to the fish's body burden (Fish #3): 0.04
- Contribution of Other tissue (all apart from blood, liver, gills and skin; muscle concentration assumed) to body burden (Fish #3): 0.15
- Contribution of Skin to the fish's body burden (Fish #3): 0.10
- Contribution of Blood to the fish's body burden (Fish #4): 0.010
- Contribution of Gills to the fish's body burden (Fish #4): 0.50
- Contribution of Liver to the fish's body burden (Fish #4): 0.15
- Contribution of Mucus to the fish's body burden (Fish #4): 0.04
- Contribution of Other tissue (all apart from blood, liver, gills and skin; muscle concentration assumed) to body burden (Fish #4): 0.18
- Contribution of Skin to the fish's body burden (Fish #4): 0.12
- Contribution of Blood to the fish's body burden (Fish #5): 0.008
- Contribution of Gills to the fish's body burden (Fish #5): 0.65
- Contribution of Liver to the fish's body burden (Fish #5): 0.08
- Contribution of Mucus to the fish's body burden (Fish #5): 0.05
- Contribution of Other tissue (all apart from blood, liver, gills and skin; muscle concentration assumed) to body burden (Fish #5): 0.11
- Contribution of Skin to the fish's body burden (Fish #5): 0.10
- Contribution of Blood to the fish's body burden (Fish #6): 0.016
- Contribution of Gills to the fish's body burden (Fish #6): 0.58
- Contribution of Liver to the fish's body burden (Fish #6): 0.11
- Contribution of Mucus to the fish's body burden (Fish #6): 0.06
- Contribution of Other tissue (all apart from blood, liver, gills and skin; muscle concentration assumed) to body burden (Fish #6): 0.11
- Contribution of Skin to the fish's body burden (Fish #6): 0.13
- Contribution of Blood to the fish's body burden (Mean): 0.012
- Contribution of Gills to the fish's body burden (Mean): 0.58
- Contribution of Liver to the fish's body burden (Mean): 0.12
- Contribution of Mucus to the fish's body burden (Mean): 0.04
- Contribution of Other tissue (all apart from blood, liver, gills and skin; muscle concentration assumed) to body burden (Mean): 0.13
- Contribution of Skin to the fish's body burden (Mean): 0.11
- Share of body burden present in gills and mucus (in vivo): at least 50%
- % contribution to body burden, Gills (mean across fish, Figure 1): 58%
- % contribution to body burden, Mucus (mean across fish, Figure 1): 4%
- % contribution to body burden, Liver [1]: 12%
- % contribution to body burden, Skin [1]: 11%
- % contribution to body burden, Muscle (mean across fish, Figure 1, includes all tissues not specifically analyzed, Q10, Q14 maximum estimates): 13%
